In EP1153612A1, “ANTICANCER AGENT POTENTIATORS” (Tsuruo, Takashi, priority 1999, dated 2000):

Key:
topoisomerase IIα = assay: Amount of expression of topoisomerase IIα in whole cell extract by western blotting; assay type: cell-based, human; settings: glucose starvation condition 14 hours; PSI, MG115, MG132 5 µM; lactacystin 10 µM; E64, ZLLal 50 µM; FIG. 5(a)-(c)
From the text: Topoisomerase II inhibiting anticancer drug stabilizes a complex (cleavable complex) consisting of the DNA and topoisomerase IIα occurring in a catalytic reaction process of topoisomerase IIα to cause DNA damage. Therefore, cell-killing effect of the topoisomerase II-inhibiting anticancer drug depends on the amount of intracellular expression of topoisomerase IIα essential for formation of the cleavable complex. Then, the amount of expression of topoisomerase IIα in the cultured cancer cell under the glucose starvation and hypoxia environment that are found in the solid cancer and the effect of the proteasome inhibiting agent to the amount of expression were examined.
The culture condition of cells is same as that described in Example 1 including the M phase synchronous culture method and culture under the glucose starvation condition. Culture under hypoxia condition, that is found in the solid cancer, similar to glucose starvation was carried out using the culture medium (that prepared by adding 5% FBS to RPMI1640 culture medium) under the ordinary condition in a Gaspack 100 anaerobic system (Becton Dickinson made). Culture under the glucose starvation condition and hypoxia condition was carried out for 14 hours .
With the purpose to prepare a whole cell extract solution, cells culture under the above described condition were washed with an ice-cooled PBS twice and then, cells were removed from the culture dish by using a cell scraper (Sumitomo Bakelite made) for collection. Cells collected were precipitated by centrifugation and then, dissolved in an SDS sample buffer to collect as the extract solution from all cells. For reference, the composition of the SDS sample buffer was 10% v/v, glycerol, 5% 2-mercaptoethanol, 2% SDS (sodium lauryl sulfate), and 62.5 mM tris-hydrochloric acid (pH 6.8).
The amount of topoisomerase IIα in the extract solution from all cells was measured by the western blotting method. The extract solution from all cells containing a total protein quantity of 30 µg was put on an SDS polyacrylamide gel (4-20 Multigel: Daiichi Pure Chemicals K.K. made) and subjected to electrophoresis in an electrophoresis buffer (25 mM tris, 192 mM glycine, and 0.1% SDS) in a 40 mA constant current for 1 hour. Subsequently, blotting was carried out in 4°C blotting buffer (25 mM tris, 192 mM glycine, and 20% methanol) in a 50 V constant voltage for 12 hours to transfer a protein separated in the SDS polyacrylamide gel to a nitrocellulose membrane. This nitrocellulose membrane was soaked in a blocking buffer (0.1% Tween 20, 4% skim milk-added PBS) for 1 hour to carry out blocking. The nitrocellulose membrane blocked was soaked in a solution, that was prepared by adding anti-topoisomerase IIα antibody (Cambridge Research Biochemicals Corp. made) of the final concentration 1 µg/ml as the primary antibody to the blocking buffer solution, for 1 hour. The nitrocellulose membrane was washed with the blocking buffer three times (5 minutes once), and then, soaked in the solution, in which a 1/1000 volume of an antimouse antibody (Amersham Pharmacia Biotech made) labeled with horse radish peroxidase as a secondary antibody had been added to the blocking buffer, for 1 hour. The nitrocellulose membrane was washed with the blocking buffer three times (5 minutes once), and then, washed with the PBS, to which 0.1% Tween 20 was added, three times (5 minutes once). The nitrocellulose membrane after completion of antibody reaction and washing was treated with the ECL reagent (Amersham Pharmacia Biotech made) after a handling manual and a topoisomerase IIα-specific signal was detected on an X-OMAT™AR film (Kodakmade). For reference, steps after blotting was carried out in a room temperature. […]
The cell culture condition for both M phase-synchronized culture method and culture under the glucose starvation condition was as described in Example 1. […]

[1] = system: human colon cancer cell HT29; assay: Anticancer therapy in human cancer cell-transplanted nude mouse model (size of tumor lump); assay type: in vivo, nude mouse BALB/cAnNCrj-nu/nu; settings: Example 5; intraperitoneally three times every 4 days; etoposide 33 mg/kg, lactacystin 40 mg/kg; in combined use lactacystin 5 hours before etoposide; FIG. 11
From the text: A human colon cancer cell HT29 was transplanted subcutaneously to a nude mouse to examine a therapeutic effect of combined use of lactacystin, the proteasome inhibiting agent, with etoposide, the anticancer drug targeting topoisomerase II.
As an experimental animal, the nude mouse BALB/cAnNCrj-nu/nu of 8-week old female (Charles River Laboratories product) was used. In order to form a tumor lump in the nude mouse, 1×10^7 HT29 cells was subcutaneously transplanted. After 8 to 10 days of transplanting, the tumor lump of HT29 cells grew to […] and at this point, the therapy was started. […]
The therapy was conducted by dividing the HT29 tumor-transplanted mice into 4 groups to assign 4 animals to 1 group as follows by administering intraperitoneally three times every 4 days: (1) control group untreated with saline, (2) etoposide 33 mg/kg, (3) lactacystin 40 mg/kg, (4) lactacystin 40 mg/kg and etoposide 33 mg/kg. […] Since start of the therapy, a size of the tumor lump was measured to measure effect of the therapy by administration of drugs once every 4 days. […]
The effect of therapy by simultaneous administration of the proteasome inhibiting agent, lactacystin, and the topoisomerase II-targeting anticancer, doxorubicin was examined. […] After start of treatment, once every 4 to 5 days, the size of the tumor lump was measured to measure the effect of treatment by drug administration.

CC(=O)N[C@@H](CSC(=O)[C@]1([C@@H](O)C(C)C)NC(=O)[C@H](C)[C@@H]1O)C(=O)O [lactacystin]
expressed amount of topoisomerase IIα (topoisomerase IIα): similarly inhibits drop of expression of topoisomerase IIα | suppression of tumor proliferation (size of the tumor lump) [1]: less suppression of tumor proliferation
